According to ChEMBL document CHEMBL1201862, “PubChem BioAssay data set” (2004):
One block for each molecule: values may come before it. The source made the active and inactive calls.

Tests used:
[1] = Jurkat T cell cytotoxicity, dose response, cytotoxicity control for P. falciparum gametocyte viability project, luminescence (AID 1117277); type: functional, cell-based;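 note: potency reflects loss of cellular ATP meaning fewer viable cells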
[2] = P. falciparum late gametocyte killing, dose response, luminescence (AID 1117278); type: functional, cell-based;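 note: gametocytes exposed to compound for 24 hours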
[3] = biological target: T1, Mannose-6-phosphate isomerase (Homo sapiens, UniProt P34949); assay: human PMI inhibitors, high substrate, primary screen, biochemical, fluorescence intensity, high mannose 6-phosphate (AID 1220)
T1 sequence (P34949 whole entry): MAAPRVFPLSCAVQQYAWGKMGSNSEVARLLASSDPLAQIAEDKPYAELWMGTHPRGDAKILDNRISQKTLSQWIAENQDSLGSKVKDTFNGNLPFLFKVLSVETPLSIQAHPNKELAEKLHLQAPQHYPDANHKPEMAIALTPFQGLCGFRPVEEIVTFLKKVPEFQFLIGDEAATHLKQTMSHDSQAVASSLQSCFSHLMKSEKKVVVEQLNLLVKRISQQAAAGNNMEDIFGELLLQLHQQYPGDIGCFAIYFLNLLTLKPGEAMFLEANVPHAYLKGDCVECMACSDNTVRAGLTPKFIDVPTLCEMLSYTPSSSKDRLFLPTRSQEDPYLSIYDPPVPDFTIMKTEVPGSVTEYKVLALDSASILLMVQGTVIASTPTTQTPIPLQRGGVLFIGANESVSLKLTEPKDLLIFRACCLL

[4] = biological target: Kallikrein-7 (Homo sapiens, UniProt P49862); assay: Fluorescence Intensity-based biochemical primary high throughput dose response assay to identify activators of kallikrein-7 (K7) zymogen.
Sequence of Kallikrein-7 (P49862 whole entry): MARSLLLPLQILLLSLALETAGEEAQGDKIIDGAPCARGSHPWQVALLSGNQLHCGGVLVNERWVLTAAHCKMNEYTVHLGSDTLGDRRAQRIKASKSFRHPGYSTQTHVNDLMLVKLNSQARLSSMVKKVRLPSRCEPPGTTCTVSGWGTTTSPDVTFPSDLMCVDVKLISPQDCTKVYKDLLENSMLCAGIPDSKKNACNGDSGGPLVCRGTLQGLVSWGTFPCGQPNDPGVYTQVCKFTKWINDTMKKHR

[5] = biological target: Prothrombin (Homo sapiens, UniProt P00734); assay: Thrombin 1536 HTS Dose Response Confirmation. [Related pubchem assays: 1046 (Thrombin 1536 HTS; hits were confirmed in this assay)]; type: functional
[6] = biological target: T2, Protein Tat (Human immunodeficiency virus type 1 group M subtype B (isolate HXB2)(HIV-1), UniProt P04608); type: functional;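 note: tat binding to TAR RNA read out by fluorescence polarization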
T2 sequence (P04608 whole entry): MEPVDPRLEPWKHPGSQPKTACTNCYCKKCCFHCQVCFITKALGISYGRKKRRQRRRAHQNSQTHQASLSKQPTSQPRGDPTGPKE

[7] = test system: H9c2; assay: cells; type: functional, cell-based; details: Rattus norvegicus, H9c2, Myocardium;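 note: confirmatory concentration-response retest of ultra-high-throughput screening hits for modulation of myocardial damage; cell death induced by hydrogen peroxide oxidative stress; compound pretreatment for 60 min then peroxide exposure for 2 h; potency is for protecting the cells against peroxide damage rather than for killing them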
[8] = biological target: T3, Beta-galactosidase (Escherichia coli, UniProt Q8VNN2); assay: beta-galactosidase enzyme inhibitors and activators, dose response, artefact control for CCR6 antagonist project, biochemical, E. coli enzyme, set 3 (AID 504712); type: functional
T3 sequence (Q8VNN2 whole entry): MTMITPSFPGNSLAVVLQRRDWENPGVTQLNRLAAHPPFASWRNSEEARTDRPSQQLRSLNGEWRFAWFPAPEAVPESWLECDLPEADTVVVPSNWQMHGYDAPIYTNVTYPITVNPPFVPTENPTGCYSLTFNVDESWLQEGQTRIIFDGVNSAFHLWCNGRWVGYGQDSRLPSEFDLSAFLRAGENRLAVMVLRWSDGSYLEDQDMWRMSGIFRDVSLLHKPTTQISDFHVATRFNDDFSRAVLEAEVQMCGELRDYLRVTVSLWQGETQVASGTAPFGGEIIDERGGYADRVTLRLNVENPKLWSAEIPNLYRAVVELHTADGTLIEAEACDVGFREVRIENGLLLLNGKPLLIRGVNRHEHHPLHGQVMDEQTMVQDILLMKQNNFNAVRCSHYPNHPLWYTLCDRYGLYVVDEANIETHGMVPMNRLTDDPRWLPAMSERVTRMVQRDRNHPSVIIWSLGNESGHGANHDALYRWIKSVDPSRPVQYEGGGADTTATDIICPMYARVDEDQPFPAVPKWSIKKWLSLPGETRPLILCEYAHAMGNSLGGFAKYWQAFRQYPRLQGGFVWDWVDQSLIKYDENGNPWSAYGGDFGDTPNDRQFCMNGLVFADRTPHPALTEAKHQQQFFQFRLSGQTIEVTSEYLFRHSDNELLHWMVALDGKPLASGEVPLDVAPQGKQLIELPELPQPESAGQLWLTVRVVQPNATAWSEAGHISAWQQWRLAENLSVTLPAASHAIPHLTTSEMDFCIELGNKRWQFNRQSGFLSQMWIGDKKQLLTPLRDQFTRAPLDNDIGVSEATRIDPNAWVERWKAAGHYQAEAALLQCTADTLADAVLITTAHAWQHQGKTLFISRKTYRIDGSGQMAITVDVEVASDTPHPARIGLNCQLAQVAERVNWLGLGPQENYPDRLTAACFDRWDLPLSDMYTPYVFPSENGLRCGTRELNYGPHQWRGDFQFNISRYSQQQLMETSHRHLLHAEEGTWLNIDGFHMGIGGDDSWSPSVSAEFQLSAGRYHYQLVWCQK

[9] = biological target: DNA dC->dU-editing enzyme APOBEC-3G (Homo sapiens, UniProt Q9HC16); type: functional;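 note: Dose-response counterscreen measuring inhibition of APOBEC3G DNA deaminase activity, run while confirming APOBEC3A inhibitors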
Sequence of DNA dC->dU-editing enzyme APOBEC-3G (Q9HC16 whole entry): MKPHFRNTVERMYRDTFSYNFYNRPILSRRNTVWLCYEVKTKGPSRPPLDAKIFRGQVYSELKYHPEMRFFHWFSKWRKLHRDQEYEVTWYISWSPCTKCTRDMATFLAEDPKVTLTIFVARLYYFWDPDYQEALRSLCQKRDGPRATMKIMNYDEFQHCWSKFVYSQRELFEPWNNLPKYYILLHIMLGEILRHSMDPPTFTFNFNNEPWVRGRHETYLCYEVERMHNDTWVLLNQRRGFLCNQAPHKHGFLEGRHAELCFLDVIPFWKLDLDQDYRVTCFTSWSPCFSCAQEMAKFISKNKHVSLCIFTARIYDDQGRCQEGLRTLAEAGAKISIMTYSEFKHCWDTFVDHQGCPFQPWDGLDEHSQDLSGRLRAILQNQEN

[10] = biological target: DNA dC->dU-editing enzyme APOBEC-3A (Homo sapiens, UniProt P31941); assay: Dose Response confirmation of small molecule APOBEC3A DNA Deaminase Inhibitors via a fluorescence-based single-stranded DNA deaminase assay. [Related pubchem assays (depositor defined):AID493011, AID493024]; type: functional
Sequence of DNA dC->dU-editing enzyme APOBEC-3A (P31941 whole entry): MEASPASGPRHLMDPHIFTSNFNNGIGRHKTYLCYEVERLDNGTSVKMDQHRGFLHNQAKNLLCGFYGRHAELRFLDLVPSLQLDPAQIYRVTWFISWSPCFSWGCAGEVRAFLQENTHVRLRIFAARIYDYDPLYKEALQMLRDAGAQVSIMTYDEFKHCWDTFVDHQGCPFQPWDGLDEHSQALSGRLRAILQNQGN

[11] = biological target: T3, Beta-galactosidase; assay: Dose response counterscreen for EBI2 assay utilizing the enzyme, b-galactosidase.; type: functional

Compound: CC(C)C1Oc2ccccc2N(CC(=O)N(Cc2ccccn2)C2CC2)C1=O (configuration not stated)
IC50 [1]: > 83.3 µM (inactive) | IC50 [2]: > 109 µM (inactive)

Compound: CN(C)c1ccc(C(=S)N2CCOCC2)cc1Br
IC50 [3]: > 50 µM (not active)

Compound: CCN1c2ccccc2-c2nc3ccccc3n2C1c1ccccn1 (configuration not stated)
EC50 [4]: > 69.5 µM (inactive)

Compound: Cc1ccc(N2CCN(c3ccc(C)cc3)C2c2ccccn2)cc1
IC50 [6]: > 100 µM (active)

Compound: O=c1c2ccccc2nc(/C=C/c2ccc(O)cc2)n1-c1ccc(O)cc1
EC50 [4]: 21.7 µM (inactive) | IC50 [7]: > 79 µM (inactive)

Compound: O=C(NC(=S)N(CCc1ccccc1)CCc1ccccc1)c1ccco1
IC50 [8]: > 66.6 µM (inactive)

Compound: CCCCn1c(N)c(C(=S)NC(=O)CC(C)C)c(=O)n(C)c1=O
IC50 [8]: > 66.6 µM (inactive)

Compound: Cn1nnnc1SCC(=O)Nc1ccc(Br)cc1Cl
IC50 [9]: 9.75 µM (active) | IC50 [10]: 5.35 µM (active)

Compound: COc1ccc(N2CCN(C(=O)c3cc(=O)c4cc(C)cc(C)c4o3)CC2)cc1
IC50 [11]: > 80 µM (inactive)

Compound: O=C1NCC(COCc2ccco2)O1 (configuration not stated)
IC50 [5]: > 50 µM (not active)

The remaining lines, values ahead:

IC50 [5]: 0.0753 µM (active)
Compound: Nc1nc(-c2cccnc2)nn1C(=O)Cc1ccccc1

EC50 [4]: 8.2 µM (active)
Compound: COC(=O)CC1=C(C(=O)OC)[C@@H](c2ccccc2[N+](=O)[O-])C(C#N)=C(N)O1

IC50 [6]: > 100 µM (active)
Compound: CCn1c(SCC(=O)NCc2ccco2)nnc1-c1cccs1

IC50 [11]: > 80 µM (inactive)
Compound: CCN(CC(=O)Nc1c(F)cccc1F)C(=O)/C=C/c1ccc(C)cc1
